Experimental data taken from US7879792B2, “Synthetic peptide inhibitors of thrombin and thrombin activation of protease activated receptors 1 and 4” (The Regents of the University of Michigan, priority 2005, dated 2011).
Read-outs that look alike come from different tables or passages of the source. Where a SMILES comes first, the peptide text is derived from it.

Columns and labels:
[1] = stability testing in intestinal perfusate; assay type: in vitro ADME; conditions: rat, 37° C.; for half-life: intestinal perfusate
Experimental: (§1) Stability testing of the various compounds was performed in buffer, intestinal perfusate, and an intestinal homogenate preparation to assess the potential oral availability of these compounds. Initial studies prepared the tissue for stability studies. The buffer used in stability testing is 10 mM MES (pH 6.5) containing 135 mM NaCl, and 5 mM KCl. To collect intestinal perfusate from rats, male Sprague Dawley rats, 8 to 10 weeks old, weighing 250 to 350 g were fasted 15 to 18 hours with water given ad libitum. Anesthesia was administered by intramuscular injection of pentobarbital/ketamine (40 mg/kg and 80 mg/kg, respectively). The rats were placed on a warming pad under a surgical lamp to maintain body temperature and jejunal intestinal segments were exposed through a midline, abdominal incision. Approximately 20 cm segment of the jejunum (2 to 4 cm distal to the ligament of Treitz) was cannulated and the intestinal segments were perfused with 10 mM MES (pH 6.5) containing 135 mM NaCl, and 5 mM KCl at a flow-rate of 0.5 ml/min at 37° C. using a constant infusion pump (Harvard Apparatus, South Natick, Mass.). The collected perfusate was stored at −80° C. until use for ex vivo stability studies. After collection, the perfused intestinal segments were flushed with ice-cold 0.15 M KCl solution and the animal was euthanized and the jejunal intestinal segment detached. The inner intestinal tissue layers are scraped out and homogenized in MES buffer (pH 6.5) in a ratio of 1 part of intestinal tissue to 5 parts buffer. Total protein content of the perfusate and the homogenate were determined using a Biorad protein assay kit. The intestinal homogenate samples were used immediately or rapidly frozen at −80° C. until stability analysis.
(§2) The actual stability testing protocol is as follows: A 0.1 ml aliquot of the synthetic peptide solution (1 mg/ml) was added to 0.9 ml of MES buffer, pH 6.5, intestinal perfusate, or intestinal homogenate at 37° C. Samples were mixed by vortexing and 100 microliter aliquots were removed over a 60 to 90 minute period for analysis of breakdown products. The 100 microliter sample aliquots were diluted 10 fold with water and subjected to solid phase extraction using a Waters Oasis HLB column. Briefly, the columns were preconditioned by passing 1 ml of MeOH and 1 ml of water over the column, and 1 ml of sample was added to the column. The column was washed with 5% methanol:95% water solution to remove proteins and salts, then eluted with 1 ml of 100% methanol. The methanol was removed by vacuum, and the sample was reconstituted in mobile phase for LC/MS/MS analysis.
(§3) LC/MS/MS analysis was performed on a HP1100 HPLC (Hewlett Packard) interfaced with a Quattro II MS/MS detector (Waters/Micromass). For the HPLC separation, a 10 μL aliquot of sample in a mobile phase consisting of an equal volume mixture of acetonitrile/water containing 0.5% formic acid was injected onto a 150 mm×2.2 mm, 5 μm C8 column (Higgins Analytical Inc) and developed at a flow rate of 0.2 ml/min for 5 minutes. The MS detector was used in single ion recording mode at a cone voltage of 50 Volts.

[2] = rat intestinal in situ perfusion permeability; assay type: in vivo; conditions: rat
Experimental: To determine the intestinal permeability of the various peptide analogs, male albino Sprague-Dawley rats, 9-10 weeks old and weighing 250-350 g were fasted for 18 hours with free access to water. The rats were anesthetized with an intramuscular injection of ketamine/xylazine/butorphanol (87 mg/kg, 6 mg/kg, and 0.2 mg/kg body weight, respectively). The abdomen was opened by a 4-5 cm midline incision and a 10 cm jejunal segment was cannulated on two ends and connected to a syringe pump that pumps the perfusing solution through the cannulated intestine at a constant rate and at a temperature of 37° C. The isolated segment was rinsed with 10 mM MES (pH 6.5) at a flow-rate of 0.5 ml/min in order to clean out any residual debris. Jejunal perfusion was subsequently performed with the same buffer containing 135 mM NaCl, 5 mM KCl and 0.01% PEG 4000 at a flow rate of 0.2 ml/min containing test compound, internal permeability reference standards (e.g., metoprolol) and ^14C-PEG 4000 as a non-absorbable marker for measuring water flux. After steady-state is reached within the perfused intestinal segment, typically 30 minutes after start of perfusion, samples were taken at 10 minute intervals for 1 hour. ^14C (PEG-4000) levels are assayed by scintillation counting and test compounds and internal permeability standard analysis by LC/MS/MS. Samples are frozen and stored at −80° C. until analysis.
The effective permeability (Peff) determined from the in situ perfusion is calculated from equation 1
[formula] where Q is the perfusion buffer flow rate, C′out is the outlet concentration of the compound that has been adjusted for water transport (equation 2) after passing through the intestinal segment, C′in is the inlet or starting concentration of the compound, R is the radius of the intestinal segment (set to 0.2 cm) and L is the length of the intestinal segment. To correct for water transport, a non-absorbed radioactive tracer, ^14C PEG-4000, is included in the perfusion buffer. The Cout/Cin ratio is corrected for water transport according to equation 2:
[formula] where Aout-A0 is equal to the radioactivity counts in the outlet sample minus background (dpm) and Ain-A0 is equal to the radioactivity counts in the inlet sample minus background (dpm).
In certain instances, in addition to perfusing the intestinal segment as described, plasma is drawn through a portal vein cannula to determine the amount of material entering the portal system during the perfusion. This additional experimental step can aid in determining the true intestinal permeability of unstable compounds. After steady state conditions are reached as described above, 0.5 ml aliquots of plasma are withdrawn from the portal vein at regular intervals throughout the experimental time frame. The plasma samples are deproteinated with acetonitrile and the sample is subjected to SPE and LC/MS analysis as described above. From the plasma concentration of compound, the mesenteric permeability can be determined by substitution into equation 3: Flux=A*Pe-mes*Ci 3) where Flux is equal to the portal blood flow (estimated at 1 ml/min in the rat)×the steady state mesenteric blood concentration of the peptide analogs, A is the absorptive area of the intestine (estimated at 12.56 cm^2 in the rat intestine), Pe-mes is the mesenteric Permeability (cm/sec), and Ci is the starting concentration of drug in the perfusate (ug/ml).

[3] = stability testing in intestinal homogenate; assay type: in vitro ADME; conditions: rat
Experimental: as §1, §2, §3

[4] = read-out: t1/2 (min) Intestinal Perfusate

Structure (SMILES): N=C(N)NCCC[C@H](N)C(=O)N1CCC[C@H]1C(=O)N1CCC[C@H]1C(=O)O [RPP, Arg-Pro-Pro, reference compound] (H-Arg-Pro-Pro-OH; C-terminus assumed)
- half-life at 0.1 mg/ml ([1]; male, Sprague Dawley, intestinal (jejunal) perfusate, pH 6.5, rat, read-out: t1/2 (min) Intestinal Perfusate): 91.8 min

Structure (SMILES): N=C(N)NCCC[C@@H](N)C(=O)N1[C@H](C(=O)N2C[C@H](O)C[C@H]2C(=O)NCC(=O)N[C@H](C(N)=O)C2Cc3ccccc3C2)C[C@@H]2CCCC[C@@H]21 [rOicHypGIdg] (HELM PEPTIDE1{[dR].[O=C([C@@H]1C[C@@H]2CCCC[C@@H]2N1[*:1])[*:2]].[Hyp].G.[O=C([C@@H](N[*:1])C1Cc2ccccc2C1)[*:2]].[am]}$$$$V2.0)
- half-life [1, 4]: 205 min

Structure (SMILES): N=C(N)NCCC[C@@H](N)C(=O)N1[C@H](C(=O)N2CCC[C@H]2C(=O)NCC(=O)N[C@H](C(N)=O)C2Cc3ccccc3C2)C[C@@H]2CCCC[C@@H]21 [rOicPGIdg] (HELM PEPTIDE1{[dR].[O=C([C@@H]1C[C@@H]2CCCC[C@@H]2N1[*:1])[*:2]].P.G.[O=C([C@@H](N[*:1])C1Cc2ccccc2C1)[*:2]].[am]}$$$$V2.0)
- half-life [1, 4]: 56.1 min

Structure (SMILES): N=C(N)NCCC[C@@H](N)C(=O)N1[C@H](C(=O)N2CCC[C@H]2C(=O)O)C[C@@H]2CCCC[C@@H]21 [rOicP] (HELM PEPTIDE1{[dR].[O=C([C@@H]1C[C@@H]2CCCC[C@@H]2N1[*:1])[*:2]].P}$$$$V2.0)
- Papp ([2]; from portal vein plasma during perfusion, read-out: Permeability (mesenteric)): 1.63 ×10⁻⁶ cm/s
- Papp ([2]; rat jejunal in situ perfusion, read-out: Permeability (in situ)): 7.6 ×10⁻⁶ cm/s
- t1/2 (min) Intestinal Perfusate [1]: stable
- half-life ([3]; intestinal homogenate, 37° C., read-out: t1/2 (min) Intestinal Homogenate): 935 min
- stability in intestinal homogenate (FIG. 12) [3]: most stable
